Experimental data taken from patent US9139809B2, “Bacterial vaccines with cell wall-associated ceramide-like glycolipids and uses thereof” (priority 2009, dated 2015).

Columns and labels:
M. tuberculosis H37Rv = details: in vivo
serum cytokines = details: mice, cited from earlier work
tumor and malaria = details: mice; cited from earlier work
malarial parasite = details: mice, αGalCer as a therapeutic; cited from earlier work
M. tuberculosis = details: αGalCer as a therapeutic; cited from earlier work

| Compound | improvement of the protective efficacy of BCG, comparison of the two glycolipids (M. tuberculosis H37Rv) | levels of Th1 cytokines IL-12 and IFNγ (serum cytokines; compared with αGalCer) | anti-tumor and anti-malarial activity compared with αGalCer (tumor and malaria) | malarial parasite load (malarial parasite) | survival of M. tuberculosis infected mice (M. tuberculosis) | serum cytokines after a single injection (IFNγ, IL-12 and IL-4) (serum cytokines; single injection) |
| --- | --- | --- | --- | --- | --- | --- |
| CCCCCCCCCCCCCCCCCCCCCCCCCC(=O)N[C@@H](CCC1OC(CO)C(O)C(O)C1O)[C@H](O)[C@H](O)CCCCCCCCCCCCCC (stereo partly drawn) [α-C-GalCer, (2S,3S,4R)-1-CH2-(α-galactopyranosyl)-N-hexacosanoyl-2-amino-1,3,4-octadecanetriol] | superior to αGalCer | induces higher levels | superior anti-tumor and anti-malarial activity as compared to αGalCer |  |  |  |
| CCCCCCCCCCCCCCCCCCCCCCCCCC(=O)N[C@@H](CO[C@H]1O[C@H](CO)[C@H](O)[C@H](O)[C@H]1O)[C@H](O)[C@H](O)CCCCCCCCCCCCCC [αGalCer, (2S,3S,4R)-1-O-(α-D-galactopyranosyl)-N-hexacosanoyl-2-amino-1,3,4-octadecanetriol] |  |  |  | reduce malarial parasite load | prolong the survival | induces a cytokine storm in the serum |
